Target: T1, purified human MAP4K4 kinase domain (Homo sapiens, UniProt O95819)
T1 construct: purified human MAP4K4 kinase domain
Experiment: MAP4K4 Inhibition Assay Protocol No. 1 (Caliper LabChip, moesin-derived peptide phosphorylation)
Format: biochemical
Conditions: Assay 1; 1 nM enzyme, 10 uM ATP, 45 min
Protocol: The kinase activity of purified human MAP4K4 kinase domain was measured by monitoring the phosphorylation of a peptide substrate derived from moesin protein (Leu-Gly-Arg-Asp-Lys-Tyr-Lys-Thr-Leu-Arg-Gln-Ile-Arg-Gln) fluorescently labeled on the N-terminus with 5-carboxyfluorescein using the Caliper LabChip technology (Caliper Life Sciences, Hopkinton, Mass.). To determine inhibition constants (IC50), compounds were serially diluted in DMSO and added to 10 uL kinase reactions containing 1 nM purified MAP4K4 enzyme, 1 uM peptide substrate, 10 uM ATP, 10 mM MgCl2, 1 mM EGTA, 50 mM Hepes pH 7.2, 1 mM DTT, 0.01% Triton X-100, and 2% DMSO. Reactions were incubated at room temperature in Perkin Elmer Proxiplates for 45 minutes and stopped by the addition of 10 uL of an EDTA-containing solution (50 mM Hepes pH 7.2, 40 mM EDTA, 0.02% Triton X-100). The fraction of phosphorylated peptide was determined as a fraction of total peptide substrate using the Caliper Lab Chip 3000 according to the manufacturer's instructions. IC50 values were determined using the four-parameter non-linear fit model.

T1 sequence (O95819 25-289 limits assumed): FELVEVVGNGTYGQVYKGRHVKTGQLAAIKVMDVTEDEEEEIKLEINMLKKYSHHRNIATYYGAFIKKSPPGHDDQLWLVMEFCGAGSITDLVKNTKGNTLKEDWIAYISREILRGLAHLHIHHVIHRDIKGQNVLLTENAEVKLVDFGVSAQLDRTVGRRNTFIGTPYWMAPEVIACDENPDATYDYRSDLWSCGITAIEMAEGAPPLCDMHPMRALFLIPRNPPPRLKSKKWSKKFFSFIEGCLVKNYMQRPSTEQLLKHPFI

Row | IC50 [µM] | Molecule
1 | 1.6 | Nc1ncc(C(=O)NCCN2CCCC2)c2ccc(-c3cccc(F)c3)cc12 [Example 47, 1-amino-7-(3-fluorophenyl)-N-(2-pyrrolidin-1-ylethyl)isoquinoline-4-carboxamide]
2 | 0.651 | CN1CCC(NC(=O)c2cnc(N)c3cc(-c4cccc(F)c4)ccc23)CC1 [Example 67, 1-amino-7-(3-fluorophenyl)-N-(1-methyl-4-piperidyl) isoquinoline-4-carboxamide]
3 | 0.403 | Nc1ncc(C(=O)NCCC(=O)N2CCOCC2)c2ccc(-c3cccc(F)c3)cc12 [Example 110, 1-amino-7-(3-fluorophenyl)-N-(3-morpholino-3-oxo-propyl)isoquinoline-4-carboxamide]
4 | 0.299 | Nc1ncc(-c2nc3ccccc3[nH]2)c2ccc(-c3cccc(F)c3)cc12 [Example 2, 4-(1H-benzimidazol-2-yl)-7-(3-fluorophenyl)isoquinolin-1-amine]
5 | 0.03 | Nc1ncc(C(=O)NC2CCC2)c2ccc(-c3cccc(F)c3)cc12 [Example 97, 1-amino-N-cyclobutyl-7-(3-fluorophenyl) isoquinoline-4-carboxamide]
6 | 0.0441 | N#CCNC(=O)c1cnc(N)c2cc(-c3cccc(F)c3)ccc12 [Example 111, 1-amino-N-(cyanomethyl)-7-(3-fluorophenyl) isoquinoline-4-carboxamide]
7 | 0.0224 | Nc1ncc(C(=O)Nc2ccncc2)c2ccc(-c3cccc(F)c3)cc12 [Example 106, 1-amino-7-(3-fluorophenyl)-N-(4-pyridyl)isoquinoline-4-carboxamide]
8 | 0.0257 | CCNC(=O)c1cnc(N)c2cc(-c3cccc(F)c3)ccc12 [Example 99, 1-amino-N-ethyl-7-(3-fluorophenyl)isoquinoline-4-carboxamide]
9 | 2 | NC(=O)C1CCCN(C(=O)c2cnc(N)c3cc(-c4cccc(F)c4)ccc23)C1 (centres unmarked) [Example 51, 1-[1-amino-7-(3-fluorophenyl)isoquinoline-4-carbonyl] piperidine-3-carboxamide]
10 | 0.231 | Nc1ncc(C(=O)NCc2cnccn2)c2ccc(-c3cccc(F)c3)cc12 [Example 89, 1-amino-7-(3-fluorophenyl)-N-(pyrazin-2-ylmethyl) isoquinoline-4-carboxamide]
11 | 0.0335 | CC(C)CNC(=O)c1cnc(N)c2cc(-c3cccc(F)c3)ccc12 [Example 92, 1-amino-7-(3-fluorophenyl)-N-isobutyl-isoquinoline-4-carboxamide]
12 | 0.114 | Cc1cncc(NC(=O)c2cnc(N)c3cc(-c4cccc(F)c4)ccc23)c1 [Example 116, 1-amino-7-(3-fluorophenyl)-N-(5-methyl-3-pyridyl) isoquinoline-4-carboxamide]
13 | 0.0081 | CN1CCC(Oc2ccc(NC(=O)c3cnc(N)c4cc(-c5cccc(F)c5)ccc34)cc2)CC1 [Example 86, 1-amino-7-(3-fluorophenyl)-N-[4-[(1-methyl-4-piperidyl)oxy]phenyl] isoquinoline-4-carboxamide]
14 | 0.148 | Nc1ncc(C(=O)NCCN2CCNC2=O)c2ccc(-c3cccc(F)c3)cc12 [Example 82, 1-amino-7-(3-fluorophenyl)-N-[2-(2-oxoimidazolidin-1-yl)ethyl]isoquinoline-4-carboxamide]
15 | 0.0774 | Nc1ncc(C(=O)NCCO)c2ccc(-c3cccc(F)c3)cc12 [Example 109, 1-amino-7-(3-fluorophenyl)-N-(2-hydroxyethyl) isoquinoline-4-carboxamide]
16 | 0.07 | Cc1ncc(NC(=O)c2cnc(N)c3cc(-c4cccc(F)c4)ccc23)cn1 [Example 117, 1-amino-7-(3-fluorophenyl)-N-(2-methylpyrimidin-5-yl)isoquinoline-4-carboxamide]

Row | IC50 [µM] | Molecule
17 | 1.4 | 1-amino-N-[2-(3,5-dimethyl- pyrazol-1-yl)ethyl]-7- (3-fluorophenyl) isoquinoline-4-carboxamide [Example 79]
18 | 0.179 | Nc1ncc(C(=O)NCc2ccccn2)c2ccc(-c3cccc(F)c3)cc12 [Example 96, 1-amino-7-(3-fluorophenyl)-N-(2-pyridylmethyl) isoquinoline-4-carboxamide]
19 | 0.0338 | Nc1ncc(C(=O)Nc2ccccc2)c2ccc(-c3cccc(F)c3)cc12 [Example 62, 1-amino-7-(3-fluorophenyl)-N-phenyl-isoquinoline-4-carboxamide]
20 | 0.622 | Nc1ncc(C(=O)N2CCC(CO)CC2)c2ccc(-c3cccc(F)c3)cc12 [Example 55, [1-amino-7-(3-fluorophenyl)-4-isoquinolyl]-[4-(hydroxy-methyl)-1-piperidyl] methanone]
21 | 0.0399 | Nc1ncc(C(=O)NCC2CC2)c2ccc(-c3cccc(F)c3)cc12 [Example 101, 1-amino-N-(cyclopropylmethyl)-7-(3-fluorophenyl) isoquinoline-4-carboxamide]
22 | 0.0996 | CC(O)CNC(=O)c1cnc(N)c2cc(-c3cccc(F)c3)ccc12 (centres unmarked) [Example 119, 1-amino-7-(3-fluorophenyl)-N-(2-hydroxypropyl) isoquinoline-4-carboxamide]
23 | 2.4 | CC(C)(N)CNC(=O)c1cnc(N)c2cc(-c3cccc(F)c3)ccc12 [Example 78, 1-amino-N-(2-amino-2-methyl-propyl)-7-(3-fluorophenyl) isoquinoline-4-carboxamide]
24 | 0.0999 | Nc1ncc(C(=O)NCC2CCOC2)c2ccc(-c3cccc(F)c3)cc12 (centres unmarked) [Example 59, 1-amino-7-(3-fluorophenyl)-N-(tetrahydrofuran-3-ylmethyl)isoquinoline-4-carboxamide]
25 | 0.0357 | Nc1ncc(C(=O)NC2CN(C(=O)C3CC3)C2)c2ccc(-c3cccc(F)c3)cc12 [Example 126, 1-amino-N-[1-(cyclo-propanecarbonyl)azetidin-3-yl]-7-(3-fluorophenyl)isoquinoline-4-carboxamide]
26 | 0.0395 | Nc1ncc(C(=O)NCCCO)c2ccc(-c3cccc(F)c3)cc12 [Example 100, 1-amino-7-(3-fluorophenyl)-N-(3-hydroxypropyl) isoquinoline-4-carboxamide]
27 | 0.363 | C[C@H](NC(=O)c1cnc(N)c2cc(-c3cccc(F)c3)ccc12)C(N)=O [Example 85, 1-amino-N-[(1S)-2-amino-1-methyl-2-oxo-ethyl]-7-(3-fluorophenyl) isoquinoline-4-carboxamide]
28 | 0.0511 | COc1cccc(CNC(=O)c2cnc(N)c3cc(-c4cccc(F)c4)ccc23)c1 [Example 91, 1-amino-7-(3-fluorophenyl)-N-[(3-methoxyphenyl)methyl]isoquinoline-4-carboxamide]
29 | 0.0909 | Cc1cnc(CNC(=O)c2cnc(N)c3cc(-c4cccc(F)c4)ccc23)cn1 [Example 104, 1-amino-7-(3-fluorophenyl)-N-[(5-methylpyrazin-2-yl)methyl]isoquinoline-4-carboxamide]
30 | 0.0841 | Nc1ncc(C(=O)NCCN2CCOCC2)c2ccc(-c3cccc(F)c3)cc12 [Example 45, 1-amino-7-(3-fluorophenyl)-N-(2-morpholinoethyl) isoquinoline-4-carboxamide]
31 | 0.0565 | 1-amino-7-(3-fluorophenyl)- N-(4-hydroxycyclohexyl) isoquinoline-4-carboxamide [Example 113]
32 | 0.0395 | CNC(=O)c1cnc(N)c2cc(-c3cccc(F)c3)ccc12 [Example 74, 1-amino-7-(3-fluorophenyl)-N-methyl-isoquinoline-4-carboxamide]
